Assay [1] has as its target Obg-like ATPase 1 (Homo sapiens, UniProt Q9NTK5).
Assay [2] deals with T1, Non-receptor tyrosine-protein kinase TNK1 (Homo sapiens, UniProt Q13470).
T1 sequence (Q13470 whole entry): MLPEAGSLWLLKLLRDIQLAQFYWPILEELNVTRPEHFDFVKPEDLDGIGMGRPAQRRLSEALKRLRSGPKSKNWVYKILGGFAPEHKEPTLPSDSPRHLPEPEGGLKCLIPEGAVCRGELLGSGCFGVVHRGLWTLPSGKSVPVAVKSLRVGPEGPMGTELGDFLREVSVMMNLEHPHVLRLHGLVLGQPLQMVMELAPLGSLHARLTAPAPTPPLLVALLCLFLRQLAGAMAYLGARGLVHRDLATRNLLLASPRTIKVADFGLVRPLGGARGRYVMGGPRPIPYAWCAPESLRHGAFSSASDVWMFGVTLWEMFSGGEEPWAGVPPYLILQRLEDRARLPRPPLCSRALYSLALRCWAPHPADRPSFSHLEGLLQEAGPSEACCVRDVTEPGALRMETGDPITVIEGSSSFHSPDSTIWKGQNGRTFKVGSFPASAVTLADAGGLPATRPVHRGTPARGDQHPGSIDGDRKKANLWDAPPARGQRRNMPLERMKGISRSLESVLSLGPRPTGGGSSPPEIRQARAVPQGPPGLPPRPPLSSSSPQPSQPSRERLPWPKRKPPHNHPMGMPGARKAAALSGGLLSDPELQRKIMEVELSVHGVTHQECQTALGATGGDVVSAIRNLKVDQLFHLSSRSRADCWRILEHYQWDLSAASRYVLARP

In assay [3] the target is T2, ATP-dependent RNA helicase DDX1 (Homo sapiens, UniProt Q92499).
T2 sequence (Q92499 whole entry): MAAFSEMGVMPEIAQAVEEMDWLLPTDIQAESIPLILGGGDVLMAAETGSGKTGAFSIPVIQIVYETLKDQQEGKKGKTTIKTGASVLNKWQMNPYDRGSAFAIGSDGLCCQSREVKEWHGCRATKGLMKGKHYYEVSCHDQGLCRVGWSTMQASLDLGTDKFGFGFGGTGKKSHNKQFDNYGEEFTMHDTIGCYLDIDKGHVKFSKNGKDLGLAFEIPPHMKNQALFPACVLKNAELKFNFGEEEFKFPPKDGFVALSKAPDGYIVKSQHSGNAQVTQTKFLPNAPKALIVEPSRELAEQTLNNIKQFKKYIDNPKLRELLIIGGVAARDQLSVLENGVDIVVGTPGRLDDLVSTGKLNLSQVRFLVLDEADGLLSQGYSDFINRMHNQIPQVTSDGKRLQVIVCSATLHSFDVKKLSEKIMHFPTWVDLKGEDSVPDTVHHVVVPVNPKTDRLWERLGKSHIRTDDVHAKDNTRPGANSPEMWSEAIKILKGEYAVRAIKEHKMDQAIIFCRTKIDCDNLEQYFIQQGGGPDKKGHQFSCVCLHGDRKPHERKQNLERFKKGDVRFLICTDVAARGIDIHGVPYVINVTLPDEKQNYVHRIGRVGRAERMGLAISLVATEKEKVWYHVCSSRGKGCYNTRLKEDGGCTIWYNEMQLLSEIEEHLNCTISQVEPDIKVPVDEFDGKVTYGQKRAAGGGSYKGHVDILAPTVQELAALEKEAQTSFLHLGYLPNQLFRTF

Assay [4] concerns the target Serine/threonine-protein kinase PAK 2 (Homo sapiens, UniProt Q13177).
The target in assay [5] is T3, Structural maintenance of chromosomes protein 1A (Homo sapiens, UniProt Q14683).
T3 sequence (Q14683 whole entry): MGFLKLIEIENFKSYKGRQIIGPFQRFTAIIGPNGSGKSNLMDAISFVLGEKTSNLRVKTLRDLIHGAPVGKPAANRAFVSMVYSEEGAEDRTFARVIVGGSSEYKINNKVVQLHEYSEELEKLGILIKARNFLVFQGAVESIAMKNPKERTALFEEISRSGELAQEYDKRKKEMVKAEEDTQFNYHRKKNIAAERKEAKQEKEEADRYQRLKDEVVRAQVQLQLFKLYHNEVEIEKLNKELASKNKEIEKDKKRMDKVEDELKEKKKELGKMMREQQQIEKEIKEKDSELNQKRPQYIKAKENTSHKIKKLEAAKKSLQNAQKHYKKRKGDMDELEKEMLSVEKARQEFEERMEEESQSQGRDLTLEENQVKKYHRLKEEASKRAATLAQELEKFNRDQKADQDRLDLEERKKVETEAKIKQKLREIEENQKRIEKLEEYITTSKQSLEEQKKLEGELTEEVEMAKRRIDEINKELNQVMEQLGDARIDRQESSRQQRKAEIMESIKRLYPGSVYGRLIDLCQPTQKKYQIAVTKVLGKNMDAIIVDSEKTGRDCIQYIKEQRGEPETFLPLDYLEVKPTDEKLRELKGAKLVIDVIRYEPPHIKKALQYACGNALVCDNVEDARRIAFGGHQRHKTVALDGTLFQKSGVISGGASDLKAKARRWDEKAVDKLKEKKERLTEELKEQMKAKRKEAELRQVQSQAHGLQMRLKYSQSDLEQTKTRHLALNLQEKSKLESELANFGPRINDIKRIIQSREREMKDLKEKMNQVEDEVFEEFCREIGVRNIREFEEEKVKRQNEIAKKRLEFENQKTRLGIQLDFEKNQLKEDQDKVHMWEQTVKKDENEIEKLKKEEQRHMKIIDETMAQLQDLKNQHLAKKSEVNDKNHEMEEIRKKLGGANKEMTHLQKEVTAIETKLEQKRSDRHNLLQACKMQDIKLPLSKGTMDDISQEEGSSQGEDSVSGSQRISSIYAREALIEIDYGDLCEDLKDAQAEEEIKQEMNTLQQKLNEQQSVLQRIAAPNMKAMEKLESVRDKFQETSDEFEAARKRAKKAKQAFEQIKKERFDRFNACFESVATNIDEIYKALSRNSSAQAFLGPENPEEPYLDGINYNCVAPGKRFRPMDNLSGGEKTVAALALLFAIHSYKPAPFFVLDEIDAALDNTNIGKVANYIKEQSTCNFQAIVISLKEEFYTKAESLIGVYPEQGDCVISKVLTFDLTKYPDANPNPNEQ

For assay [6], the target named is Serine/threonine-protein kinase/endoribonuclease IRE2 (Homo sapiens, UniProt Q76MJ5).
Sequence of Serine/threonine-protein kinase/endoribonuclease IRE2 (Q76MJ5 whole entry, the tested form may be a part): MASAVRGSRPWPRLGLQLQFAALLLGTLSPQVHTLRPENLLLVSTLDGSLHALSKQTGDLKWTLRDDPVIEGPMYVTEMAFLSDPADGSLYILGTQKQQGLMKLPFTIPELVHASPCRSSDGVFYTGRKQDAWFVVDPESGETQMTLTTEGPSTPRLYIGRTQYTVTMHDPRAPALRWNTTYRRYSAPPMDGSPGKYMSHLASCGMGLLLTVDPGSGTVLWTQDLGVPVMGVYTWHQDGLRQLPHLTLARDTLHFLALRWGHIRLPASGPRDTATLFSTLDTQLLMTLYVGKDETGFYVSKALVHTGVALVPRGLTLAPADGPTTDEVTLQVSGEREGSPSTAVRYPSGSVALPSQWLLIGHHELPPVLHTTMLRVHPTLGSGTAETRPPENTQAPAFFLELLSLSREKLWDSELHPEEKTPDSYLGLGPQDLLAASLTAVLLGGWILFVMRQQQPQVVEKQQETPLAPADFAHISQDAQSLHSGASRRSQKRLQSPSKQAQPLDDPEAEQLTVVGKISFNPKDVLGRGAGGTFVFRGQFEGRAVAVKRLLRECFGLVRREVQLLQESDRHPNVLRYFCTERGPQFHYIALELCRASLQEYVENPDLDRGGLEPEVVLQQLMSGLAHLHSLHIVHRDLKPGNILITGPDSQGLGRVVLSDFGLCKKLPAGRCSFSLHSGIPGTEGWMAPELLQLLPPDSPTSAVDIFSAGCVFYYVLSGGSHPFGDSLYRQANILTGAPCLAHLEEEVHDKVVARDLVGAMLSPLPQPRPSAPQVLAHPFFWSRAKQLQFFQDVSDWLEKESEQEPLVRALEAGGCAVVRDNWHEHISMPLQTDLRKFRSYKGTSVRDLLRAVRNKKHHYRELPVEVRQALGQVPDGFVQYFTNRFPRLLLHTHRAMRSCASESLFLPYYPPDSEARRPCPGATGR
Assay [7] addresses LIM domain kinase 1 (Homo sapiens, UniProt P53667).
The target in assay [8] is Atypical kinase COQ8A, mitochondrial (Homo sapiens, UniProt Q8NI60).
Sequence of Atypical kinase COQ8A, mitochondrial (Q8NI60 whole entry): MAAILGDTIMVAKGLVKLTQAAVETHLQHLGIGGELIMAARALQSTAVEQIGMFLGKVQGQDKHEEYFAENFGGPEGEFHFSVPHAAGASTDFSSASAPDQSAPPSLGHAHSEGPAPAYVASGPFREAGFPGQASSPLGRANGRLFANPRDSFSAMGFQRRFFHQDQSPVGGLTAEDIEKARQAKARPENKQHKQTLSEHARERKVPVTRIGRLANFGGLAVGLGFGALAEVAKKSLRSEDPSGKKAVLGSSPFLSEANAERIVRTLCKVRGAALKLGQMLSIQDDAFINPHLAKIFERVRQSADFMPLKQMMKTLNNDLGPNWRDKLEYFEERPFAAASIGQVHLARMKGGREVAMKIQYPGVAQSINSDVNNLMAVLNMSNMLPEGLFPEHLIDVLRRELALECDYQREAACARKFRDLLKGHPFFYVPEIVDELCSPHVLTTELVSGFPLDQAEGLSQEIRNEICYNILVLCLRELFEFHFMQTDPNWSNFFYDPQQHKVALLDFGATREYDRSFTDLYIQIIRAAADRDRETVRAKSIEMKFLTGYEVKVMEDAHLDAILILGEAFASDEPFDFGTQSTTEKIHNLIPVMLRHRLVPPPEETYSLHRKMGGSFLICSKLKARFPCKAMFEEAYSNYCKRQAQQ

The source made the active and inactive calls. Some results are limits rather than exact numbers.

For twelve compounds, Kd results are on record in ChEMBL document CHEMBL3991601, “The target landscape of clinical kinase drugs” (Science, 2017).
Also: in the data inactive means no Kd found up to 30 µM.

Sequence of LIM domain kinase 1 (P53667 whole entry, the tested form may be a part): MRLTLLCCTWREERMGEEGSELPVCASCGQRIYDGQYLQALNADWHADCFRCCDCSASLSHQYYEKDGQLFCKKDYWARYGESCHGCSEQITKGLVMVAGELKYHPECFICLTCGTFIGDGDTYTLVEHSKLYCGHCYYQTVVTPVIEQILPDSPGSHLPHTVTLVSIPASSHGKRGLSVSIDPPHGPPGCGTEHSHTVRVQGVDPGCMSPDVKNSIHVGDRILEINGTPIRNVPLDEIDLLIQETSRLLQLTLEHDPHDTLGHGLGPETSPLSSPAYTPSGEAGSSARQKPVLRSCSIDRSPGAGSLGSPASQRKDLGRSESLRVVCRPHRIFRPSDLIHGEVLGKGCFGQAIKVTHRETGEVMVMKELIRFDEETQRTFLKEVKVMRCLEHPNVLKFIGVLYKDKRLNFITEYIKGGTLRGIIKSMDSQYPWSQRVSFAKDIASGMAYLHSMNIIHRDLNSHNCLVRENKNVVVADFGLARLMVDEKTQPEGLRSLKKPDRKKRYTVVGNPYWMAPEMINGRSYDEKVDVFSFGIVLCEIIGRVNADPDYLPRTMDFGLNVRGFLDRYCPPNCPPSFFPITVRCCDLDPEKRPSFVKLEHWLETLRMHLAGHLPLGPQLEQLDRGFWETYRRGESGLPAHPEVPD
Sequence of Obg-like ATPase 1 (Q9NTK5 whole entry, looked up): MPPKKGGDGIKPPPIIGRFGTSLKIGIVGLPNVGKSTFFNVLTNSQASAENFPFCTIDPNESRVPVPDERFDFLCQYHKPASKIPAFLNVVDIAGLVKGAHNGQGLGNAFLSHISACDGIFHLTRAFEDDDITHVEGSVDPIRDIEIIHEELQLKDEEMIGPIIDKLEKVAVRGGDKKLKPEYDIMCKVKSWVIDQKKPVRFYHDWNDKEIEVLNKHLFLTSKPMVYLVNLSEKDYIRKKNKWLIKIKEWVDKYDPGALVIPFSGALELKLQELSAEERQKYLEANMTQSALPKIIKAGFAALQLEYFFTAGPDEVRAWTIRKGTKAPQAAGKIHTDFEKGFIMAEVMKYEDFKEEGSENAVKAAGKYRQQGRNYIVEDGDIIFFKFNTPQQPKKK
Sequence of Serine/threonine-protein kinase PAK 2 (Q13177 whole entry): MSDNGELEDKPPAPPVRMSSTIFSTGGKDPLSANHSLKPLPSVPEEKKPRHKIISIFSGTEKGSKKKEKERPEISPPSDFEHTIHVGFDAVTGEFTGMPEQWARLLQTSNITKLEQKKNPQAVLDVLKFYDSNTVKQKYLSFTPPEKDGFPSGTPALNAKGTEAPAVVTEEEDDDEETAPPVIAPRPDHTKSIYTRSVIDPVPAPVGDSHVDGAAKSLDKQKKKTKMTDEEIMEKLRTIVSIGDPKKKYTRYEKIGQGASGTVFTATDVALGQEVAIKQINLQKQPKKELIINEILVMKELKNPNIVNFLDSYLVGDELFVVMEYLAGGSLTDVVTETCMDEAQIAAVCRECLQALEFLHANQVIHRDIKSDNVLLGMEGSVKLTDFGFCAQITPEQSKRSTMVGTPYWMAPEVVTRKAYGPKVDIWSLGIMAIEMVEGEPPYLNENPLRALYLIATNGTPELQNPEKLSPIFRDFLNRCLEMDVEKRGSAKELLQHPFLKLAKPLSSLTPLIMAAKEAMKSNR

For the compound `CCn1c(C(=O)N(C2CC2)C2CC2)cc2c3c(ncn3C)c(Nc3cc(C)n(C)n3)nc21` [BMS-911543], the Kd in assay [1], in assay [2], in assay [3], in assay [4], in assay [5] and in assay [6] was > 30 µM (inactive) each time. The Kd in assay [7] and in assay [8] was > 30 µM (inactive) throughout.
`COc1cc2ncnc(Oc3cccc(NC(=O)Nc4cc(C(C)(C)C(F)(F)F)on4)c3)c2cc1OC` [CEP-32496]: the Kd in assay [1], in assay [2], in assay [3], in assay [4], in assay [5] and in assay [6] was > 30 µM (inactive) in each case. The Kd in assay [7] and in assay [8] was > 30 µM (inactive) throughout.
For `COc1c(OCCCN2CCOCC2)ccc2c1N=C(NC(=O)c1cnc(N)nc1)N1CCN=C21` [COPANLISIB], the Kd in assay [1], in assay [2], in assay [3], in assay [4], in assay [5] and in assay [6] was > 30 µM (inactive) throughout. For the same compound, the Kd in assay [7] and in assay [8] was > 30 µM (inactive) each time.
Consider `COCC(=O)NC/C=C/c1ccc2ncnc(Nc3ccc(Oc4ccc(C)nc4)c(C)c3)c2c1` [CP-724714], for which the Kd in assay [1], in assay [2], in assay [3], in assay [4], in assay [5] and in assay [6] was > 30 µM (inactive) throughout. The Kd in assay [7] and in assay [8] was > 30 µM (inactive) in each case.
With `Cc1nc2cc(-n3ncc(C(=O)c4cc5ccccc5[nH]4)c3N)ccc2[nH]1` [FGFR INHIBITOR DEBIO 1347], the Kd in assay [1], in assay [2], in assay [3], in assay [4], in assay [5] and in assay [6] was > 30 µM (inactive) throughout. In addition, the Kd in assay [7] and in assay [8] was > 30 µM (inactive) throughout.
`O=C(Nc1nc2cccc(-c3ccc(CN4CCS(=O)(=O)CC4)cc3)n2n1)C1CC1` [FILGOTINIB]: the Kd in assay [1], in assay [2], in assay [3], in assay [4], in assay [5] and in assay [6] was > 30 µM (inactive) each time. In addition, the Kd in assay [7] and in assay [8] was > 30 µM (inactive) each time.
With `Cc1cccc(-c2nn3c(c2-c2ccnc4ccc(C(N)=O)cc24)CCC3)n1` [GALUNISERTIB], the Kd in assay [1], in assay [2], in assay [3], in assay [4], in assay [5] and in assay [6] was > 30 µM (inactive) throughout. In addition, the Kd in assay [7] was > 30 µM (inactive); in assay [8] it was 12.2 µM.
With `COc1ccc(S(=O)(=O)N(C(C)=O)c2ccccc2/C=C/c2cc[n+]([O-])cc2)cc1` [HMN-214], the Kd in assay [1], in assay [2], in assay [3], in assay [4], in assay [5] and in assay [6] was > 30 µM (inactive) in each case. Moreover, the Kd in assay [7] and in assay [8] was > 30 µM (inactive) each time.
As for `CNC(=O)c1cccc2cc(Oc3ccnc4cc(OCC5(N)CC5)c(OC)cc34)ccc12` [LUCITANIB], the Kd in assay [1], in assay [2], in assay [3], in assay [4], in assay [5] and in assay [6] was > 30 µM (inactive) throughout. The Kd in assay [7] and in assay [8] was > 30 µM (inactive) throughout.
Take `NC1(c2ccc(-c3nc4ccn5c(=O)[nH]nc5c4cc3-c3ccccc3)cc2)CCC1` [MK-2206]: the Kd in assay [1], in assay [2], in assay [3], in assay [4], in assay [5] and in assay [6] was > 30 µM (inactive) throughout. The Kd in assay [7] and in assay [8] was > 30 µM (inactive) in each case.
For `CN(C[C@@H]1COCCO1)S(=O)(=O)Nc1ccc2ccc3ncc(-c4cnn(C)c4)cc3c(=O)c2c1` [MK-2461], the Kd in assay [1], in assay [2], in assay [3], in assay [4], in assay [5] and in assay [6] was > 30 µM (inactive) throughout. Further, the Kd in assay [7] and in assay [8] was > 30 µM (inactive) in each case.
As for `Cn1cc(-c2cnc3ccc4ccc(CS(=O)(=O)NCc5ccccn5)cc4c(=O)c3c2)cn1` [MK-8033], the Kd in assay [1], in assay [2], in assay [3], in assay [4], in assay [5] and in assay [6] was > 30 µM (inactive) in each case. In addition, the Kd in assay [7] and in assay [8] was > 30 µM (inactive) in each case.

What is called Kd is the constant that tells how readily two partners part at equilibrium.
